The source of these data is publication PMC9488889, “Insight into mode-of-action and structural determinants of the compstatin family of clinical complement inhibitors” (Nature Communications, 2022).

In the test the target is T1, C3b (Homo sapiens, UniProt P01024).
T1 construct: the α’NT, MG6^α−8, anchor, and C-terminal complement (CTC) domains of the α-chain that are all shared between C3c and C3b; purchased Complement Technology (Tyler, TX, USA)
The test is described as follows: SPR kinetic binding studies on immobilized C3b. The protocol: All compstatin analogues were characterized concerning affinity and kinetic profiles by surface plasmon resonance (SPR) using a Biacore T200 instrument (Cytiva, Piscataway, USA). Experiments were run at 25 °C in HBST buffer (10 mM HEPES, 150 mM NaCl, 0.05% Tween-20, pH 7.4). C3b was immobilized on a carboxymethyl dextran hydrogel chip (CMD200; XanTec, Düsseldorf, Germany) using standard amine coupling in sodium acetate buffer pH 4.5 at a flow rate of 10 µl/min. Immobilization densities of 8000 and 4000 resonance units (RU) were achieved on separate flow cells. A reference flow cell was activated with the same method (NHS/EDC). All active sites were inactivated and blocked with ethanolamine. A single cycle approach at a flow rate of 30 µl/min was used for kinetic analysis by injecting five increasing concentrations of each compound (0.5–40 nM) consecutively without regeneration in-between injections. Individual injections within a cycle were 120 s long with a 60 sec dissociation phase between injections. After the highest concentration of each derivative, a dissociation period of 6,000–14,400 sec was added to ensure complete dissociation in absence of suitable regeneration method. […] Signals from the reference cell from an ensemble of buffer blank injections were subtracted to correct for buffer effects and injection artefacts. Kinetic data was processed with the Biacore T200 Software (version 3.1; Cytiva) using a single-cycle evaluation setup by global fitting each data set to a 1:1 Langmuir binding model. Association and dissociation rate constants (ka and kd, respectively) were fitted, and the equilibration constant KD was calculated based on the following equation: KD = kd/ka. Each assay was performed at least twice and in duplicate injections.

[1] abbreviates: pH 7.4, read-out: ka, Dataset 1.
Setting [2] is: pH 7.4, read-out: ka, Dataset 2.
[3] abbreviates: pH 7.4, read-out: ka, Dataset 3.
[4] abbreviates: Table 1, amine-reactive immobilized C3b, 25 °C, average±SD of three independent SPR experiments, read-out: KD.
Setting [5] is: source data of Table 1, single SPR dataset 1, read-out: KD, Dataset 1.
[6] abbreviates: source data of Table 1, single SPR dataset 2, read-out: KD, Dataset 2.
Where [7] appears, read: source data of Table 1, single SPR dataset 3, read-out: KD, Dataset 3.

The structures appear in SMILES notation. Like-named read-outs stand apart in the source and are kept apart here. Bridge positions count the residues as written; N and C are the ends. Square brackets hold non-standard residues; d marks the D form. Peptide text beside a SMILES is read from it. Trp(1-Me) = Cn1cc(C[C@H](N)C(=O)O)c2ccccc21; NMeI = CC[C@H](C)[C@H](NC)C(=O)O; Sar = CNCC(=O)O

T1 sequence (P01024 23-667 limits assumed): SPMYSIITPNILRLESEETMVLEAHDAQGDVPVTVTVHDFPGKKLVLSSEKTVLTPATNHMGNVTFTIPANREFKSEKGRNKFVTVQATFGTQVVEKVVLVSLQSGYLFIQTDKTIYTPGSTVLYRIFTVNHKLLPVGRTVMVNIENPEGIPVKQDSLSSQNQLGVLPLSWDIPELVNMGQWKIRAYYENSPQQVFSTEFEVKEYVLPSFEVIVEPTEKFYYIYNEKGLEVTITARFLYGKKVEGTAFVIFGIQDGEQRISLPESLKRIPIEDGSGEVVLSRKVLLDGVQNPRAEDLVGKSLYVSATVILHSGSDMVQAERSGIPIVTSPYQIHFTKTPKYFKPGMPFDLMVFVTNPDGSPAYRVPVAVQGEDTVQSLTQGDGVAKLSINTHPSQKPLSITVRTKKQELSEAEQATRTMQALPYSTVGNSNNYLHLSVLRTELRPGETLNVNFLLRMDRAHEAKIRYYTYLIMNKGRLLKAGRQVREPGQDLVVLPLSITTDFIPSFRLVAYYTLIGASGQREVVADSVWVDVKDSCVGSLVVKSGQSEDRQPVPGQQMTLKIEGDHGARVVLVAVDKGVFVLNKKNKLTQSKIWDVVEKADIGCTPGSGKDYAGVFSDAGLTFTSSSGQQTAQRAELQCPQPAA
T1 sequence (P01024 749-1663 limits assumed): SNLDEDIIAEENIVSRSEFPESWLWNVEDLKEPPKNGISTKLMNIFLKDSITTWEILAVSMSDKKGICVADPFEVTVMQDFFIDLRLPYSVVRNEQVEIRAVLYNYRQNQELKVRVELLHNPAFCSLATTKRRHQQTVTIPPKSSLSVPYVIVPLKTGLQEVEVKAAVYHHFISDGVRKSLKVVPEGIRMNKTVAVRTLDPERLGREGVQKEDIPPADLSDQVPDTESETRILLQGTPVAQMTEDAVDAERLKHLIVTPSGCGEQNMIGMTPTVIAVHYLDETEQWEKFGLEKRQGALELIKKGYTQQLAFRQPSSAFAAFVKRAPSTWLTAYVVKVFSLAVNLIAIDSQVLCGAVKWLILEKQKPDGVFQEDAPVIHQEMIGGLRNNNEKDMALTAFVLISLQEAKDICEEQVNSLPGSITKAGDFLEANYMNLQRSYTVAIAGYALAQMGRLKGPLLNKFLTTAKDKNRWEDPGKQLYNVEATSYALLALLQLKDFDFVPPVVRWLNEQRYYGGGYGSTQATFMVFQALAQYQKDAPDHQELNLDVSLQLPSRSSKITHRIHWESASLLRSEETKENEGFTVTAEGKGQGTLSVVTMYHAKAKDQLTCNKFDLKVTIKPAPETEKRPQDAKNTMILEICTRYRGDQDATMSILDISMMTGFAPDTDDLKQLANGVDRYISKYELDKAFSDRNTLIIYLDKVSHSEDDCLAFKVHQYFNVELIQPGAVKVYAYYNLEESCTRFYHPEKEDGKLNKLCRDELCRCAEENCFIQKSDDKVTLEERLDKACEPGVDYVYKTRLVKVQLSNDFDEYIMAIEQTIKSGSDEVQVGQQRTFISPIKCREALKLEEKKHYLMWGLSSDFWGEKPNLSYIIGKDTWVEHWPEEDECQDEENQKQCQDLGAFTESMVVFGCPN

`CC[C@H](C)[C@H](NC(=O)[C@H](N)Cc1ccc(O)cc1)C(=O)N[C@H]1CSSC[C@@H](C(=O)N[C@@H](C)C(N)=O)NC(=O)[C@H](CCCNC(=N)N)NC(=O)[C@H](Cc2c[nH]cn2)NC(=O)[C@H](C)NC(=O)CN(C)C(=O)[C@H](Cc2c[nH]c3ccccc23)NC(=O)[C@H](CC(=O)O)NC(=O)[C@H](CCC(N)=O)NC(=O)[C@H](Cc2cn(C)c3ccccc23)NC(=O)[C@H](C(C)C)NC1=O` [Cp40 mI14A] (H-[dY]ICV[Trp(1-Me)]QDW[Sar]AHRCA-NH2; disulfide 3-13): the kon (pH 7.4, read-out: ka) turned out to be 3e+06 ± 1.6e+06 M⁻¹ s⁻¹; the kon under setting [1] is 4.23e+06 M⁻¹ s⁻¹; the kon under setting [2] is 1.11e+06 M⁻¹ s⁻¹; the kon under setting [3] turned out to be 3.53e+06 M⁻¹ s⁻¹.
In general, Kd refers to the equilibrium constant for the complex coming apart. Turning to `CC[C@H](C)[C@H](NC(=O)[C@H](C)N)C(=O)N[C@H]1CSSC[C@@H](C(=O)N(C)[C@H](C(N)=O)[C@@H](C)CC)NC(=O)[C@H](CCCNC(=N)N)NC(=O)[C@H](Cc2c[nH]cn2)NC(=O)[C@H](C)NC(=O)CN(C)C(=O)[C@H](Cc2c[nH]c3ccccc23)NC(=O)[C@H](CC(=O)O)NC(=O)[C@H](CCC(N)=O)NC(=O)[C@H](Cc2cn(C)c3ccccc23)NC(=O)[C@H](C(C)C)NC1=O` [Cp40 y1A] (H-AICV[Trp(1-Me)]QDW[Sar]AHRC[NMeI]-NH2; disulfide 3-13), the Kd runs as follows: under setting [4], 3.8 ± 0.5 nM; under setting [5], 4.11 nM; under setting [6], 4.27 nM; under setting [7], 3.1 nM. Further, the kon (pH 7.4, read-out: ka) was found to be 400000 M⁻¹ s⁻¹; the kon under setting [1] was found to be 470000 M⁻¹ s⁻¹; the kon under setting [3] was found to be 290000 M⁻¹ s⁻¹.
For `CC[C@H](C)[C@H](NC(=O)[C@@H](C)N)C(=O)N[C@H]1CSSC[C@@H](C(=O)N(C)[C@H](C(N)=O)[C@@H](C)CC)NC(=O)[C@H](CCCNC(=N)N)NC(=O)[C@H](Cc2c[nH]cn2)NC(=O)[C@H](C)NC(=O)CN(C)C(=O)[C@H](Cc2c[nH]c3ccccc23)NC(=O)[C@H](CC(=O)O)NC(=O)[C@H](CCC(N)=O)NC(=O)[C@H](Cc2cn(C)c3ccccc23)NC(=O)[C@H](C(C)C)NC1=O` [Cp40 y1a], where the note is “Table 1, amine-reactive immobilized C3b, 25 °C, average±SD of three independent SPR experiments”, the kd is reported as 2.3 ± 0.4 10^−3 s^−1. In addition, the Kd was 2.9 ± 0.6 nM under setting [4], 2.19 nM under setting [5], 2.99 nM under setting [6] and 3.63 nM under setting [7]. For the same compound, the kon is, setting by setting: (pH 7.4, read-out: ka) 800000 ± 100000 M⁻¹ s⁻¹; under setting [1], 840000 M⁻¹ s⁻¹; under setting [2], 920000 M⁻¹ s⁻¹; under setting [3], 650000 M⁻¹ s⁻¹. Besides, for the setting “source data of Table 1, single SPR dataset 1”, the “kd, Dataset 1” value is on record as 1.85 10-3 s-1. Under “source data of Table 1, single SPR dataset 2”, the “kd, Dataset 2” value is 2.77 10-3 s-1. Moreover, the “kd, Dataset 3” value (source data of Table 1, single SPR dataset 3) is on record as 2.36 10-3 s-1.
`CC[C@H](C)[C@H](NC(=O)[C@H](N)Cc1ccc(O)cc1)C(=O)N[C@H]1CSSC[C@@H](C(N)=O)NC(=O)[C@H](CCCNC(=N)N)NC(=O)[C@H](Cc2c[nH]cn2)NC(=O)[C@H](C)NC(=O)CN(C)C(=O)[C@H](Cc2c[nH]c3ccccc23)NC(=O)[C@H](CC(=O)O)NC(=O)[C@H](CCC(N)=O)NC(=O)[C@H](Cc2cn(C)c3ccccc23)NC(=O)[C@H](C(C)C)NC1=O` [Cp40 ΔmI14] (H-[dY]ICV[Trp(1-Me)]QDW[Sar]AHRC-NH2; disulfide 3-13): the kon is, setting by setting: (pH 7.4, read-out: ka) 1.5e+06 ± 200000 M⁻¹ s⁻¹; under setting [1], 1.41e+06 M⁻¹ s⁻¹; under setting [2], 1.28e+06 M⁻¹ s⁻¹; under setting [3], 1.8e+06 M⁻¹ s⁻¹.
